{"source": "patent US20200323991A1", "about": "“PBD CONJUGATES FOR TREATING DISEASES” (ENDOCYTE, INC., priority 2016, published 2020)", "key": {"[1]": {"tested_on": "TNBC PDX tumor", "test": "In vivo activity against triple negative breast tumors (FIG. 38)", "design": "species or system mice", "conditions": "1.0 μmol/kg SIW for two weeks", "procedure": "(§1) Mice were maintained and tumor volumes were measures according to Method 3.\n(§2) Primary human TNBC model ST502 (2-4 mm in diameter) or primary human TNBC model ST738 (2-4 mm in diameter) were inoculated subcutaneously at the right flank of each mouse. Mice were randomized into experimental groups of 7 mice each and test articles were injected through the lateral tail vein under sterile conditions in a volume of 200 μL of phosphate-buffered saline (PBS)."}, "[2]": {"tested_on": "ST070 ovarian PDX tumors", "test": "In vivo activity against ovarian tumors, ST070", "design": "species or system mice", "conditions": "15.0 mg/kg SIW for two weeks", "procedure": "as §1\nas §2, with “Ovarian” for “TNBC”, “ST070 fragments” for “ST502 (2-4 mm in diameter) or primary human TNBC model ST738”"}, "[3]": {"tested_on": "Endometrial PDX tumor (ST040)", "test": "In vivo activity against endometrial tumors, ST040", "design": "species or system mice", "conditions": "15 mg/kg SIW for two weeks", "procedure": "Female Balb/c nu/nu mice were fed ad libitum with folate-deficient chow (Harlan diet #TD01013) for the duration of the experiment. Primary human Endometrial model ST040 fragments (2-4 mm in diameter) were inoculated subcutaneously at the right flank of each mouse. Mice were randomized into experimental groups of 7 mice each and test articles were injected through the lateral tail vein under sterile conditions in a volume of 200 μL of phosphate-buffered saline (PBS). These studies were performed at South Texas Accelerated Research Therapeutics, 4383 Medical Drive, San Antonio, Tex. 78229.\nGrowth of each s.c. tumor was followed by measuring the tumor two times per week until a volume of 1200 mm^3 was reached. Tumors were measured in two perpendicular directions using Vernier calipers, and their volumes were calculated as 0.5×L×W^2, where L=measurement of longest axis in mm and W=measurement of axis perpendicular to L in mm."}, "[4]": {"tested_on": "Calf thymus DNA (CT-DNA)", "test": "DNA crosslinking assay (ethidium bromide fluorescence)", "assay_type": "biochemical", "procedure": "(§3) Calf thymus DNA (CT-DNA) was combined with increasing concentrations of Conjugate 1 (0.14 to 33.3 pM) or Conjugate 1+/− DTT. CT-DNA+Melphalan was used as a positive control and CT-DNA+DMSO was used as a negative control. These solutions were incubated at 37° C. for 2 hours. The solutions were then mixed with ethidium bromide and incubated for 2 hours at room temperature. Fluorescence (Ex: 535 nm, Em: 605 nm) from these samples was measured on the Fluoroskan II fluorimeter. Next, the samples were heated to 104° C. for 5 minutes, cooled on ice for 5 minutes, kept at RT for 15 minutes and fluorescence measured. % crosslinking of each sample was calculated using the fluorescence values from the positive and negative controls.\nas §3, with “5 (1.1” for “1 (0.14”, “75” for “33.3”, “5+/−” for “1+/−”, “DTT.” for “DTT. CT-DNA+Melphalan was used as a positive control and CT-DNA+DMSO was used as a negative control.”"}, "[5]": {"biological_target": "T1, folate receptor (Homo sapiens, UniProt P15328)", "T1 construct": "endogenous in cells; host or cells: KB cells", "T1 sequence (P15328 25-234)": "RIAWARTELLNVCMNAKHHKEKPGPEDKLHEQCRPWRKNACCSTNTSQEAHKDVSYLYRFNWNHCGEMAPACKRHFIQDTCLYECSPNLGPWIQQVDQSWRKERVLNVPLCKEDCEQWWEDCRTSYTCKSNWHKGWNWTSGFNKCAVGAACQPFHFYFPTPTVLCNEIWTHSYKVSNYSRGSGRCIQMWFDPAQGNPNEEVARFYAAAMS", "test": "Relative affinity assay (displacement of [3H]FA bound to FR on KB cells)", "assay_type": "binding", "conditions": "100 nmol/L [3H]FA, 1 h at 37° C.", "procedure": "FR-positive KB cells were seeded in 24-well Falcon plates and allowed to form adherent monolayers (>90% confluent) overnight in FFRPMI/HIFCS. Spent incubation medium was replaced with FFRPMI supplemented with 10% HIFCS and containing 100 nmol/L of [^3H]FA in the absence and presence of increasing concentrations of unlabeled FA or the test conjugate. Cells were incubated for 1 h at 37° C. and then rinsed thrice with 0.5 mL PBS. Five hundred microliters of 1% SDS in PBS were added to each well; after 5 min, cell lysates were collected, transferred to individual vials containing 5 mL of scintillation cocktail, and then counted for radioactivity.\nCells exposed to only the [3H]FA in FFRPMI (no competitor) were designated as negative controls, whereas cells exposed to the [3H]FA plus 1 mmol/L unlabeled FA served as positive controls. Disintegrations per minute (DPM) measured in the latter samples (representing nonspecific binding of label) were subtracted from the DPM values from all samples."}, "[6]": {"tested_on": "KB tumor", "test": "Antitumor activity in large KB tumor model", "assay_type": "in vivo, mice", "conditions": "0.5 μmol/kg, once a week for two weeks", "procedure": "Female Balb/c nu/nu mice were fed ad libitum with folate-deficient chow (Harlan diet #TD01013) for the duration of the experiment. KB tumor cells were inoculated subcutaneously at the right flank of each mouse. Mice were dosed after the tumors reached an average of 100 and 180 mm^3 through the lateral tail vein under sterile conditions in a volume of […] of phosphate-buffered saline (PBS).\nGrowth of each s.c. tumor was followed by measuring the tumor two times per week. Tumors were measured in two perpendicular directions using Vernier calipers, and their volumes were calculated as 0.5×L×W^2, where L=measurement of longest axis in mm and W=measurement of axis perpendicular to L in mm."}, "[7]": {"tested_on": "MDA-MB231 cells", "test": "3H-thymidine incorporation in MDA-MB231 cells", "assay_type": "cell-based, human", "conditions": "MDA-MB-231 cells, 100 μM folic acid", "procedure": "MDA-MB231 (human breast cancer) cells were seeded in 12-well Falcon plates and allowed to form nearly confluent monolayers overnight in FFRPMI/HIFCS. Designated wells received medium containing 100μM folic acid (nontoxic FR blocker) and were used to determine the targeting specificity. Each well then received increasing concentrations of Conjugate 1 (n=4). Cells were pulsed for 2 h at 37° C., rinsed with medium, and then chased in fresh medium up to 72 h. Spent medium was aspirated and replaced with medium containing [3H]thymidine. Following a 2 h incubation, cells were washed with PBS and then treated with 5% trichloroacetic acid. The trichloroacetic acid was aspirated and cells were solubilized in 0.25 N sodium hydroxide. Each solubilized sample were transferred to scintillation vials containing Ecolume scintillation cocktail and counted in a liquid scintillation counter. Final results were expressed as the percentage of [3H]thymidine incorporation relative to untreated controls and IC50 were values calculated using GraphPad Prism software."}, "[8]": {"test": "Toxicity in KB tumor bearing mice", "assay_type": "in vivo", "conditions": "0.5 μmol/kg, once a week for two weeks", "procedure": "The percentage weight change of the test animals was determined on selected days post-tumor inoculation (PTI), and during dosing. The results were graphed."}, "[9]": {"tested_on": "KB cells", "assay_type": "cell-based, human", "conditions": "read-out: IC50 value, 3H-thymidine incorporation", "procedure": "The conjugates described herein were evaluated using an in vitro cytotoxicity assay that predicted the ability of the drug to inhibit the growth of the corresponding targeted cells, such as, but not limited to the following\nIt is to be understood that the choice of cell type can be made on the basis of the susceptibility of those selected cells to the drug that forms the conjugate, and the relative expression of the cell surface receptor or target antigen. The test conjugates were conjugates of a cell surface receptor or target antigen binding compound and PBD prodrugs, poly-PBD prodrugs, and mixed PBDs, as described herein. The test cells were exposed to varying concentrations of the conjugates, and optionally also in the absence or presence of at least a 100-fold excess of the unconjugated cell surface receptor or target antigen binding compound for competition studies to assess activity as being specific to the cell surface receptor or target antigen.\nKB cells were seeded in individual 24-well Falcon plates and allowed to form nearly confluent monolayers overnight in folate free Roswell Park Memorial Institute (FFRPMI)/Heat-Inactivated Fetal Calf Serum (HIFCS). Thirty minutes prior to the addition of folate-conjugate, spent medium was aspirated from all wells and replaced with either fresh FFRPMI or FFRPMI supplemented with 100 μM folic acid. […] Cells were pulsed for 2 h at 37° C., rinsed 4 times with 0.5 mL of medium and then chased in 1 mL of fresh medium up to 72 h. Spent medium was aspirated from all wells and replaced with fresh medium containing 5 μCi/mL of ^3H-thymidine. Following a 2 h incubation at 37° C., cells were washed 3 times with 0.5 mL of PBS and then treated with 0.5 mL of ice-cold 5% trichloroacetic acid per well. After 15 min, the trichloroacetic acid was aspirated and the cells solubilized by the addition of 0.5 mL of 0.25 N sodium hydroxide for 15 min at room temperature. Four hundred and fifty […] of each solubilized sample were transferred to scintillation vials containing 3 mL of Ecolume scintillation cocktail and counted in a liquid scintillation counter. Final results were expressed as the percentage of ^3H-thymidine incorporation relative to untreated controls."}, "[10]": {"conditions": "with excess folate (100 μM folic acid)"}, "[11]": {"conditions": "without excess folate, 2 h pulse, chase up to 72 h"}}, "note": "pIC50: −log10 of the molar value. Read-outs that look alike come from different tables or passages of the source.", "data": [{"molecule": "erubulin mesylate", "values": [{"measurement": "TNBC PDX tumor size compared to untreated control", "setting": "[1]", "value": "did not decrease TNBC PDX tumor size"}]}, {"molecule": "CC(=O)O[C@H]1C(=O)[C@@]2(C)[C@H]([C@H](OC(=O)c3ccccc3)[C@]3(O)C[C@H](OC(=O)[C@H](O)[C@@H](NC(=O)c4ccccc4)c4ccccc4)C(C)=C1C3(C)C)[C@]1(OC(C)=O)CO[C@@H]1C[C@@H]2O", "note": "[paclitaxel]", "values": [{"measurement": "tumor size compared to untreated control", "setting": "[2]", "value": "did not have decreased tumor size"}, {"measurement": "partial response subjects", "setting": "[3]", "value": 0, "unit": "%"}]}, {"molecule": "C=C1C[C@H]2C=Nc3cc(OCCCCCOc4cc5c(cc4OC)C(=O)N4CC(=C)C[C@H]4[C@H](O)N5C(=O)OCC(C)SSC[C@H](NC(=O)[C@H](CC(=O)O)NC(=O)[C@H](CC(=O)O)NC(=O)[C@H](CCCNC(=N)N)NC(=O)[C@H](CC(=O)O)NC(=O)CC[C@H](NC(=O)c4ccc(NCc5cnc6nc(N)[nH]c(=O)c6n5)cc4)C(=O)O)C(=O)O)c(OC)cc3C(=O)N2C1", "note": "(stereo partly drawn) [Conjugate 1]", "values": [{"measurement": "DNA crosslinking by reduced form", "setting": "[4]; treated with DTT", "value": "crosslink with DNA"}, {"measurement": "DNA crosslinking by intact conjugate", "setting": "[4]; without DTT", "value": "not able to crosslink DNA"}, {"measurement": "relative binding affinity toward the folate receptor, fold lower than that of folic acid", "setting": "[5]", "value": "~4.2", "unit": "fold"}, {"measurement": "cures", "setting": "[6]", "value": 100, "unit": "%"}, {"measurement": "cytotoxic activity in the presence of an excess of free folate", "setting": "[7]", "value": "significant reduction in activity"}]}, {"molecule": "C=C1C[C@H]2C=Nc3cc(OCCCCCOc4cc(N)c(C(=O)N5CC(=C)C[C@H]5C5CCCN5C(=O)OC[C@@H](SSC[C@H](NC(=O)[C@H](CC(=O)O)NC(=O)[C@H](CC(=O)O)NC(=O)[C@H](CCCNC(=N)N)NC(=O)[C@H](CC(=O)O)NC(=O)CC[C@H](NC(=O)c5ccc(NCc6cnc7nc(N)[nH]c(=O)c7n6)cc5)C(=O)O)C(=O)O)C(C)C)cc4OC)c(OC)cc3C(=O)N2C1", "note": "(stereo partly drawn) [Conjugate 12]", "values": [{"measurement": "PRs (partial responses)", "setting": "[6]", "value": 100, "unit": "%"}, {"measurement": "day on which mice had to be euthanized due to toxicity", "setting": "[8]", "value": 40, "unit": "days"}]}, {"molecule": "C=C1C[C@H]2C=Nc3cc(OCCCCCOc4cc5c(cc4OC)C(=O)N4CC(=C)C[C@H]4[C@H](O)N5C(=O)OCCSSC[C@H](NC(=O)[C@H](CC(=O)O)NC(=O)[C@H](CC(=O)O)NC(=O)[C@H](CCCNC(=N)N)NC(=O)[C@H](CC(=O)O)NC(=O)CC[C@H](NC(=O)c4ccc(NCc5cnc6nc(N)[nH]c(=O)c6n5)cc4)C(=O)O)C(=O)O)c(OC)cc3C(=O)N2C1", "note": "[Conjugate 3]", "values": [{"measurement": "complete responses", "setting": "[6]", "value": 100, "unit": "%"}, {"measurement": "pIC50", "setting": "[9]; [10]", "value": 8.52}, {"measurement": "pIC50", "setting": "[9]; [11]", "value": 10.41}, {"measurement": "day on which mice had to be euthanized due to toxicity", "setting": "[8]", "value": 48, "unit": "days"}]}, {"molecule": "C=C1C[C@H]2C=Nc3cc(OCCCCCOc4cc(N)c(C(=O)N5CC(=C)C[C@H]5C5OCCN5C(=O)OCC(C)(C)SSCCC(=O)NCCNC(=O)CCOCCOCCOCCOCCNC(=O)CCN5C(=O)CC(SC[C@@H](NC(=O)[C@H](CCC(=O)NC[C@H](O)[C@@H](O)[C@H](O)[C@H](O)CO)NC(=O)[C@@H](CCC(=O)O)NC(=O)[C@H](CCC(=O)NC[C@H](O)[C@@H](O)[C@H](O)[C@H](O)CO)NC(=O)[C@@H](CCC(=O)O)NC(=O)[C@H](CCC(=O)NC[C@H](O)[C@@H](O)[C@H](O)[C@H](O)CO)NC(=O)CC[C@H](NC(=O)c6ccc(NCc7cnc8nc(N)[nH]c(=O)c8n7)cc6)C(=O)O)C(=O)O)C5=O)cc4OC)c(OC)cc3C(=O)N2C1", "note": "(stereo partly drawn) [Conjugate 6]", "values": [{"measurement": "complete responses", "setting": "[6]", "value": 50, "unit": "%"}, {"measurement": "cures", "setting": "[6]", "value": 50, "unit": "%"}, {"measurement": "pIC50", "setting": "[9]; [10]", "value": 8.52}, {"measurement": "pIC50", "setting": "[9]; [11]", "value": 10.32}]}]}
